Experiment [1] deals with T1, IKZF1 ZNF2_ZNF3 Q1F degron-tagged CD19 CAR (Homo sapiens, UniProt Q13422, Q146F).
T1 construct: ZNF2_ZNF3 Q1F degron (GERPFFCNQCGASFTQKGNLLRHIKLHSGEKPFKCHLCNYACRRRDALTGHLRTHS); fused on or other part: anti-CD19 scFv, CD28 transmembrane domain, 4-1BB costimulatory domain, CD3 zeta signaling domain (the CAR that carries the degron), and Nluc
In words: Degradation of Q1F degron-tagged CD19 CAR in Jurkat cells (flow cytometry of CAR levels). In kind it is cell-based. The settings on record: for DC50: Jurkat cells expressing CD19 CAR tagged with IKZF1 ZNF2_ZNF3 Q1F, 18 hours at 37° C., CAR levels normalized to untreated cells, read-out: Q1F Jurkat IC50; for Dmax: read-out: Q1F Jurkat-YMax. Summed up:
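Jurkat cells were lentivirally transduced with an anti-CD19 scFv/CD28 TM/4-1BB/CD3ζ CAR tagged with an IKZF1 ZNF2_ZNF3 Q1F degron–Nluc, then treated with compound titrations for 18 h at 37 °C. CAR surface levels were stained (20 min, 4 °C), read by flow cytometry and normalised to untreated cells. EC50 came from a four-parameter logistic fit; Ymin is the minimum % CAR remaining.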
A general note: A flow cytometer gives signals particle by particle.

The target in a further experiment is T2, Helios (Homo sapiens, UniProt Q9UKS7).
T2 construct: endogenous in cells; host or cells: Jurkat cells, CRISPR/Cas9 knock-in of HiBit at the IKZF2 locus
T2 sequence (Q9UKS7 whole entry): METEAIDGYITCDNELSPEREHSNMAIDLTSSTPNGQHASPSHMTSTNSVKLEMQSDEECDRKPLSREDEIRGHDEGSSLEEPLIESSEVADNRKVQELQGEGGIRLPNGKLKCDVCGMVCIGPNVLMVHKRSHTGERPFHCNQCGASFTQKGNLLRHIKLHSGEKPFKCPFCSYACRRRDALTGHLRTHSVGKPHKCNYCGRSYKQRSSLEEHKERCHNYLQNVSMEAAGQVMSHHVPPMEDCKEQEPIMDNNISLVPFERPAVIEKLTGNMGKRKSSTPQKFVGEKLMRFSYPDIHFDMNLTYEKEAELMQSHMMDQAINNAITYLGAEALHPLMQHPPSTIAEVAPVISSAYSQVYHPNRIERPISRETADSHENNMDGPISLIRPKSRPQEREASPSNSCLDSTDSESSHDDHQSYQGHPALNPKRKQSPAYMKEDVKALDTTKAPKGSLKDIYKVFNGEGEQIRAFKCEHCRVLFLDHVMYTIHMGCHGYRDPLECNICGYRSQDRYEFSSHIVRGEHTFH
T2 sequence (Q96SW2 whole entry, further chain): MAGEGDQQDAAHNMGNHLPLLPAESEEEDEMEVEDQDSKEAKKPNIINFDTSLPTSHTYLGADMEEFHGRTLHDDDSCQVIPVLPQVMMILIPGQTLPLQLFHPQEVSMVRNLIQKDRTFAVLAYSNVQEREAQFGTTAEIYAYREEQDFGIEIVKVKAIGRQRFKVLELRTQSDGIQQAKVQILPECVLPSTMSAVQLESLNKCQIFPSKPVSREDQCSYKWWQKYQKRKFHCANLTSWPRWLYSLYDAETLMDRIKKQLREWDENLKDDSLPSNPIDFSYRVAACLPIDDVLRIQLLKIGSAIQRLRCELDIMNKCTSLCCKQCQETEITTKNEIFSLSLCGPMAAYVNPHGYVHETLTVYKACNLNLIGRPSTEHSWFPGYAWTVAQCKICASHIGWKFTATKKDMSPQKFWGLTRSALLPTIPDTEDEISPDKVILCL
T2 sequence (Q16531 whole entry partner): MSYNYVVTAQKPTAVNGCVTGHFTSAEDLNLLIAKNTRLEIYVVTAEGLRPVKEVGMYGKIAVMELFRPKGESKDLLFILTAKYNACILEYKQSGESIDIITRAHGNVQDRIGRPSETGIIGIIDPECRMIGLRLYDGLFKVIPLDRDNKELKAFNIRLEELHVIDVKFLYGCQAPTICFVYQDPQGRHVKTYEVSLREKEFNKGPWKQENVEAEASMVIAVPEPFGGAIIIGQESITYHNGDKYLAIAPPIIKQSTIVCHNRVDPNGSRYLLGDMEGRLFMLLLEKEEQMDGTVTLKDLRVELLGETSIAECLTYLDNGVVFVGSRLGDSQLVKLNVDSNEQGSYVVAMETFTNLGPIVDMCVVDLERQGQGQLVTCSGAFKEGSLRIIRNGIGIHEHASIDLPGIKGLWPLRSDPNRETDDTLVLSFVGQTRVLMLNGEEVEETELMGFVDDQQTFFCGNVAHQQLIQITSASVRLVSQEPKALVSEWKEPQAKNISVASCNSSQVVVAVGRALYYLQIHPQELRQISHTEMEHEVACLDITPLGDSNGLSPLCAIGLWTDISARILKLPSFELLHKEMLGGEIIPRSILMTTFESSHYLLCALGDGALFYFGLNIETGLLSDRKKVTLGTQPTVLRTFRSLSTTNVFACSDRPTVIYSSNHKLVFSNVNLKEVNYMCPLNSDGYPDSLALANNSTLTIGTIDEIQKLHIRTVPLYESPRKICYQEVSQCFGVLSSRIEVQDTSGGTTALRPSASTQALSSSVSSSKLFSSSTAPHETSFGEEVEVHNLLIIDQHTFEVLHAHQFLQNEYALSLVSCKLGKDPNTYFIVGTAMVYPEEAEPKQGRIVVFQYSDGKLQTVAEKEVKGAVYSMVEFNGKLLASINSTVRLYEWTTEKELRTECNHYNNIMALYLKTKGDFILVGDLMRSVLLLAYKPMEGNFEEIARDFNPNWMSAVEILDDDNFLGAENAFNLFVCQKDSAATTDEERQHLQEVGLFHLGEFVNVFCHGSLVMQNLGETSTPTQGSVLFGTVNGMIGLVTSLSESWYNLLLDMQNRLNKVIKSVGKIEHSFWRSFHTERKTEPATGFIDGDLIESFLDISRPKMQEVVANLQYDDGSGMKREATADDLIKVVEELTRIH
Description: Helios degradation in Jurkat/Helios/HiBit cells (Nano-Glo luminescence). In kind it is cell-based. The settings on record: 18 hr, read-out: Helios Jurkat Hibit IC50. Summed up: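 Jurkat cells carrying CRISPR-knocked-in C-terminal HiBit-tagged endogenous IKZF2 were treated with compound in DMEM/10% FCS (10,000 cells/well) for 18 h at 37 °C. HiBit signal was read by Nano-Glo luminescence after 30 min at RT. EC50 for degradation came from a four-parameter logistic fit, with Ymax as % protein degraded.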
Background: HiBiT is a short tag that completes a luciferase, so light tracks the accessible tagged protein.

Setting [2] is: Ymax is the % protein degraded, Jurkat cells expressing Q1F degron-tagged CD19 CAR, 18 hours.

The results in this text go back to patent publication US20240327381A1, “Compounds and Compositions for Selective Degradation of Engineered Proteins” (Celgene Corporation, priority 2023, published 2024).

Read-outs that look alike come from different tables or passages of the source.

T1 sequence (Q13422 whole entry Q146F, the tested form may be a part): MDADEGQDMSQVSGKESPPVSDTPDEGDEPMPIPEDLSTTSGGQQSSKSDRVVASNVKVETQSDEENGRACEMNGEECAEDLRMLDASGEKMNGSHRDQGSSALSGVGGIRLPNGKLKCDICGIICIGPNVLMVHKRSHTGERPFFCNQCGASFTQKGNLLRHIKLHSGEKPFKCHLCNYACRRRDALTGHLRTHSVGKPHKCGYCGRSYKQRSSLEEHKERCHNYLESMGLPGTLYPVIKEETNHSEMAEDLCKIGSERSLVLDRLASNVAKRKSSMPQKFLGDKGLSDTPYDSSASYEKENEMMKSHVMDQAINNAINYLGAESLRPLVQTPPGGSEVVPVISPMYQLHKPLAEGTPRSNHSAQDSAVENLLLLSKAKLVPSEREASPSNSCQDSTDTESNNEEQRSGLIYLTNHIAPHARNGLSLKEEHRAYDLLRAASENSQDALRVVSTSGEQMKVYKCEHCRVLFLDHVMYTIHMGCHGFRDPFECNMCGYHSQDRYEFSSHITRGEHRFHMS

As for `COCCN1CCC(c2c(F)cc3c(c2F)CN(C2CCC(=O)NC2=O)C3=O)CC1` (stereo not drawn) [Compound 124, 3-(4,6-difluoro-5-(1-(2-methoxyethyl)piperidin-4-yl)-1-oxoisoindolin-2-yl)piperidine-2,6-dione], the DC50 is 11 nM in experiment [1] and not below 10000 nM at Helios. Moreover, in experiment [1] (setting [2]), the Dmax is 76.7%.
With `O=C1CCC(N2Cc3cc(C4CCN(Cc5cccc6ncsc56)CC4)c(F)cc3C2=O)C(=O)N1` (stereo not drawn) [Compound 91, 3-(5-(1-(benzo[d]thiazol-7-ylmethyl)piperidin-4-yl)-6-fluoro-1-oxoisoindolin-2-yl)piperidine-2,6-dione], the DC50 in experiment [1] was 3.9 nM; at Helios, not below 10000 nM. The Dmax in experiment [1] (setting [2]) is 92.1%.
Consider `CS(=O)(=O)Nc1cccc(CN2CCC(c3c(F)cc4c(c3F)CN(C3CCC(=O)NC3=O)C4=O)CC2)c1` (stereo not drawn) [Compound 109, N-(3-((4-(2-(2,6-dioxopiperidin-3-yl)-4,6-difluoro-1-oxoisoindolin-5-yl)piperidin-1-yl)methyl)phenyl) methanesulfonamide], for which the DC50 in experiment [1] was 2.28 nM; at Helios, not below 10000 nM. In experiment [1] (setting [2]), the Dmax turned out to be 91.5%.
For `Cc1cc(Br)cnc1CN1CCC(c2c(F)cc3c(c2F)CN(C2CCC(=O)NC2=O)C3=O)CC1` (stereo not drawn) [Compound 48, 3-(5-(1-((5-bromo-3-methylpyridin-2-yl)methyl)piperidin-4-yl)-4,6-difluoro-1-oxoisoindolin-2-yl)piperidine-2,6-dione], the values for the DC50 (in experiment [1]; at Helios) were 2.24 nM and not below 10000 nM, respectively. The Dmax in experiment [1] (setting [2]) came out at 87.8%.
For `O=C1CCC(N2Cc3cc(C4CCN(Cc5nc6ccccc6s5)CC4)c(F)cc3C2=O)C(=O)N1` (stereo not drawn) [Compound 83, 3-(5-(1-(benzo[d]thiazol-2-ylmethyl)piperidin-4-yl)-6-fluoro-1-oxoisoindolin-2-yl)piperidine-2,6-dione], the DC50 in experiment [1] was 19.9 nM; at Helios it was not below 10000 nM. Further, the Dmax in experiment [1] (setting [2]) was found to be 76.8%.
Consider `Cc1ccc(CCN2CCC(c3c(F)cc4c(c3F)CN(C3CCC(=O)NC3=O)C4=O)CC2)cc1` (stereo not drawn) [Compound 111, 3-(4,6-difluoro-5-(1-(4-methylphenethyl)piperidin-4-yl)-1-oxoisoindolin-2-yl)piperidine-2,6-dione], for which the DC50 in experiment [1] is 7.45 nM; at Helios it was not below 10000 nM. In addition, the Dmax in experiment [1] (setting [2]) amounted to 82.7%.
Turning to `O=C1CCC(N2Cc3c(cc(F)c(C4CCN(Cc5ccc(Cl)cc5)CC4)c3F)C2=O)C(=O)N1` (stereo not drawn) [Compound 96, 3-(5-(1-(4-chlorobenzyl)piperidin-4-yl)-4,6-difluoro-1-oxoisoindolin-2-yl)piperidine-2,6-dione], the DC50 in experiment [1] was 4.17 nM; at Helios, not below 10000 nM. Further, in experiment [1] (setting [2]), the Dmax was 89.7%.
As for `O=C1CCC(N2Cc3c(cc(F)c(C4CCN(Cc5ccc(-n6ccnc6)cc5)CC4)c3F)C2=O)C(=O)N1` (stereo not drawn) [Compound 8, 3-(5-(1-(4-(1H-imidazol-1-yl)benzyl)piperidin-4-yl)-4,6-difluoro-1-oxoisoindolin-2-yl)piperidine-2,6-dione], the DC50 is 4.97 nM in experiment [1] and not below 10000 nM at Helios. The Dmax in experiment [1] (setting [2]) is 91.7%.
As for `CC(=O)Nc1ccc(CN2CCC(c3c(F)cc4c(c3F)CN(C3CCC(=O)NC3=O)C4=O)CC2)cc1` (stereo not drawn) [Compound 101, N-(4-((4-(2-(2,6-dioxopiperidin-3-yl)-4,6-difluoro-1-oxoisoindolin-5-yl)piperidin-1-yl)methyl)phenyl)acetamide], the results for the DC50 (in experiment [1]; at Helios) were 0.473 nM and not below 10000 nM, respectively. In addition, the Dmax in experiment [1] (setting [2]) was 86.9%.
The like results for `O=C1CCC(N2Cc3c(cc(F)c(CNC(=O)c4ccc5c(c4)CCC5)c3F)C2=O)C(=O)N1` (stereo not drawn) [Compound 92, N-((2-(2,6-dioxopiperidin-3-yl)-4,6-difluoro-1-oxoisoindolin-5-yl)methyl)-2,3-dihydro-1H-indene-5-carboxamide] were, in that order, 9.16 nM, not below 10000 nM and 63.2%.
Regarding `O=C1CCC(N2Cc3cc(C4CCN(Cc5ccc(C(F)(F)F)cc5)CC4)c(F)cc3C2=O)C(=O)N1` (stereo not drawn) [Compound 85, 3-(6-fluoro-1-oxo-5-(1-(4-(trifluoromethyl)benzyl)piperidin-4-yl)isoindolin-2-yl) piperidine-2,6-dione], the DC50 is 1.53 nM in experiment [1] and not below 10000 nM at Helios. In experiment [1] (Jurkat, 18 h), the Dmax was determined as 89.3%.
On to `Cc1cc(CN2CCC(c3c(F)cc4c(c3F)CN(C3CCC(=O)NC3=O)C4=O)CC2)nn1C` (stereo not drawn) [Compound 103, 3-(5-(1-((1,5-dimethyl-1H-pyrazol-3-yl)methyl)piperidin-4-yl)-4,6-difluoro-1-oxoisoindolin-2-yl)piperidine-2,6-dione], for which the DC50 in experiment [1] was 1.96 nM; on Helios, not below 10000 nM. Further, in experiment [1] (setting [2]), the Dmax was determined as 84.7%.
On to `O=C1CCC(N2Cc3c(cc(F)c(C4CCN(Cc5ccnn5-c5ccccc5)CC4)c3F)C2=O)C(=O)N1` (stereo not drawn) [Compound 9, 3-(4,6-difluoro-1-oxo-5-(1-((1-phenyl-1H-pyrazol-5-yl)methyl)piperidin-4-yl)isoindolin-2-yl)piperidine-2,6-dione], for which the values for the DC50 (in experiment [1]; at Helios) were 2.74 nM and not below 10000 nM, respectively. In addition, the Dmax in experiment [1] (setting [2]) was determined as 89.1%.
Take `N#Cc1ccc2c(c1)CN(C(=O)c1c(F)cc3c(c1F)CN(C1CCC(=O)NC1=O)C3=O)CC2` (stereo not drawn) [Compound 70, 2-[2-(2,6-dioxo-3-piperidyl)-4,6-difluoro-1-oxo-isoindoline-5-carbonyl]-3,4-dihydro-1H-isoquinoline-7-carbonitrile]: the DC50 in experiment [1] was 15 nM; at Helios, not below 10000 nM. For the same compound, in experiment [1] (Jurkat, 18 h), the Dmax came out at 95.5%.
For the compound `CS(=O)(=O)NCCN1CCC(c2c(F)cc3c(c2F)CN(C2CCC(=O)NC2=O)C3=O)CC1` (stereo not drawn) [Compound 98, N-(2-(4-(2-(2,6-dioxopiperidin-3-yl)-4,6-difluoro-1-oxoisoindolin-5-yl)piperidin-1-yl)ethyl)methanesulfonamide], the figures for the DC50 (in experiment [1]; on Helios) were 39.8 nM and not below 10000 nM, respectively. The Dmax in experiment [1] (setting [2]) stood at 76.9%.
`O=C1CCC(N2Cc3c(cc(F)c(C4CCN(Cc5cc(F)ccc5-n5cccn5)CC4)c3F)C2=O)C(=O)N1` (stereo not drawn) [Compound 47, 3-(4,6-difluoro-5-(1-(5-fluoro-2-(1H-pyrazol-1-yl)benzyl)piperidin-4-yl)-1-oxoisoindolin-2-yl)piperidine-2,6-dione]: the DC50 is 2.5 nM in experiment [1] and not below 10000 nM at Helios. Further, the Dmax in experiment [1] (setting [2]) stood at 88.8%.
Regarding `O=C1CCC(N2Cc3c(cc(F)c(C4(O)CCN(Cc5coc(-c6cccs6)n5)CC4)c3F)C2=O)C(=O)N1` (stereo not drawn) [Compound 14, 3-(4,6-difluoro-5-(4-hydroxy-1-((2-(thiophen-2-yl)oxazol-4-yl)methyl)piperidin-4-yl)-1-oxoisoindolin-2-yl)piperidine-2,6-dione], the DC50 in experiment [1] is 22.4 nM; at Helios, not below 10000 nM. In experiment [1] (setting [2]), the Dmax turned out to be 66.9%.
The like results for `CN(CCN1CCC(c2c(F)cc3c(c2F)CN(C2CCC(=O)NC2=O)C3=O)CC1)Cc1ccccc1` (stereo not drawn) [Compound 65, 3-(5-(1-(2-(benzyl(methyl)amino)ethyl)piperidin-4-yl)-4,6-difluoro-1-oxoisoindolin-2-yl)piperidine-2,6-dione] were, in that order, 1.09 nM, not below 10000 nM and 85.5%.
